Laboratory results as given in paper PMC5562305, “Impact of novel palmitoylated prolactin-releasing peptide analogs on metabolic changes in mice with diet-induced obesity” (PLoS ONE, 2017).
“And” between values parts separate entries of the source, which are not always exact repeats. Equal values may be shown once. Starred links: 1 amine or outer side, 2 acyl side, 3 side chain; linkers in the order of their positions; H or OH if unused. Residues, ends and D or L forms follow the SMILES beside them. Groups on a side chain read outwards from the residue. *: point of attachment. γGlu = O=C(O)[C@H](CCC(=O)[*:2])N[*:1]; Palmitoyl = CCCCCCCCCCCCCCCC(=O)*

How the values were obtained:
c-Fos = experiment: Fos immunohistochemistry in mouse brain; format: in vivo; conditions: overnight fasted mice, 5 mg/kg SC, 90 min after injection, n = 4, vs saline
Procedure: Ninety minutes after injection, the mice were deeply anesthetized with sodium pentobarbital (50 mg/kg, intraperitoneally) and perfused transcardially. The brains were withdrawn, and c-Fos immunoreactivity was determined as described in [19, 20].
For the immunohistochemical study, the c-Fos rabbit monoclonal antibody (Cell Signaling Technology, #2250S) detecting total level of endogenous c-Fos protein was used in final dilution (1:2000) for 48 h (4°C).

GPR10 [1] = biological target: T1, GPR10 (Homo sapiens, UniProt P49683); experiment: Beta-lactamase-dependent FRET assay (bla reporter gene) in CHO-K1 cells overexpressing GPR10; format: cell-based; set-up: expressed in transfected cells; host or cells: CHO-K1; conditions: average of the single experiments; read-out: Activation of bla reporter gene in GPR10 overexpressing cells, EC50, AVERAGE
T1 sequence (P49683 1-370): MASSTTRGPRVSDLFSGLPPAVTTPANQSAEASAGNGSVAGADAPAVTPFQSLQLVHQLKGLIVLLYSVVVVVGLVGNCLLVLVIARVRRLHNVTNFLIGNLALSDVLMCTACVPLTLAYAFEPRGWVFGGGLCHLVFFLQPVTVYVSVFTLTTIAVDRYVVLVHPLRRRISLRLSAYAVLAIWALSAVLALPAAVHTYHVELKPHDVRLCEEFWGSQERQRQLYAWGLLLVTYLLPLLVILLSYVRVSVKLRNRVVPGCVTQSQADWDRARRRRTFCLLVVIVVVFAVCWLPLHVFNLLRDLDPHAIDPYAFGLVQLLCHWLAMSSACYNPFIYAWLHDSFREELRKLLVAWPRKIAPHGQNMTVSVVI
Procedure: CHO-K1 cells overexpressing GPR10 were plated at 40,000 cells/well in 128 μl of assay medium (DMEM containing 10% dialyzed FBS, 0.1 mM NEAA, 25 mM HEPES, 1% penicillin/streptomycin, and 2 mM L-glutamine) in a 96-well plate and were incubated for 20 h at 37°C/5% CO2. The assay was performed according to the manufacturer's protocol.
The results from the lactamase assay were analyzed using nonlinear regression by log agonist vs. response using GraphPad software.

GPR10 [2] = biological target: T1, GPR10; experiment: Competitive binding of 125I-human PrRP31 to plated CHO-K1 cells expressing GPR10; set-up: host or cells: CHO-K1
Procedure: CHO-K1 cells expressing the GPR10 receptor (Thermo Fisher Scientific Inc., Waltham, MA, USA) were grown according to the manufacturer's instructions. Saturation and competitive binding experiments were performed according to the methods of Motulsky and Neubig. […] The experiments were performed on plated cells that were incubated for 60 min at 25°C. Non-specific binding was determined using 10^−5 M PrRP31. The binding assays involving human NPFF2 receptor membranes obtained from Perkin Elmer were performed as described in [18].
Data are presented as the means ± SEM. The competitive binding curves were plotted using GraphPad software (San Diego, CA, USA), and the best fits were compared for single-binding-site models (IC50 values were obtained from nonlinear regression analysis). Inhibition constants (Ki) were calculated from the IC50 values using the Cheng-Prusoff equation [23]. The concentration of the radioligand was 0.1 nM for cell membranes of CHO-K1 cells overexpressing NPFF2 and 0.03 nM for CHO-K1 cells overexpressing GPR10.

[3] = Cumulative food intake of DIO mice during 2-week SC treatment; format: in vivo, C57BL/6 mice; conditions: two weeks of SC treatment, 5 mg/kg twice a day, in words
Text: (§1) Inbred C57BL/6 male mice that were 3 weeks old were obtained from Charles River Laboratories (Sulzfeld, Germany). […] From 8 weeks of age, the mice were fed in house made high-fat (HF) diet to induce obesity. […] After twelve weeks of HF-diet feeding, two weeks of SC administration of lipidized PrRP analogs was initiated while the mice were kept on the HF diet. The following experimental groups were established: […] Food intake and BW were monitored daily during the dosing period.

[4] = Adipose tissue and liver weights in DIO mice at the end of the experiment; format: in vivo, C57BL/6 mice; conditions: 5 mg/kg SC twice a day, 2 weeks, n = 10, mean ± SEM
Text: (§2) From 8 weeks of age, the mice were fed in house made high-fat (HF) diet to induce obesity. […] After twelve weeks of HF-diet feeding, two weeks of SC administration of lipidized PrRP analogs was initiated while the mice were kept on the HF diet. The following experimental groups were established: […] Food intake and BW were monitored daily during the dosing period. At the end of the experiment, the mice were sacrificed by decapitation. The trunk blood was collected, and the blood plasma was separated and stored at -20°C. The visceral adipose tissues (VAT) (from abdominal part), subcutaneous adipose tissues (SCAT) (all adipose tissue depots under the skin), perirenal adipose tissues, interscapular brown adipose tissues (BAT), and livers of all of the mice were dissected, weighed, flash-frozen in liquid nitrogen, and stored at -70°C for later extraction of RNA.

[5] = Body weight of DIO mice during 2-week SC treatment; format: in vivo, C57BL/6 mice; conditions: 5 mg/kg SC twice a day, 2 weeks
Text: as §1

[6] = Hormonal and biochemical (metabolic) parameters in blood of DIO mice; format: in vivo, C57BL/6 mice; conditions: mean ± SEM
Text: as §2, with “RNA. The plasma insulin concentrations were measured using an RIA assay (Millipore, St. Charles, MI, USA), and the leptin concentrations were determined by ELISA (Millipore, St. Charles, MI, USA). The blood glucose levels were measured using a Glucocard glucometer (Arkray, Kyoto, Japan). The plasma triglyceride levels were measured using a quantitative enzymatic reaction (Sigma, St. Louis, MO, USA), and the free fatty acids (FFA) levels were determined using a colorimetric assay (Roche, Mannheim, Germany). Cholesterol was determined by colorimetric assay (Erba Lachema, Brno, Czech Republic). All measurements were performed according to the manufacturer's instructions.” for “RNA.”

[7] = plasma, 5 mg/kg SC twice a day, 2 weeks

For CCCCCCCCCCCCCCCC(=O)N[C@@H](CCC(=O)NCCCC[C@H](NC(=O)[C@@H](NC(=O)[C@H](CCC(=O)O)NC(=O)[C@H](CCSC)NC(=O)[C@H](CO)NC(=O)[C@H](Cc1c[nH]cn1)NC(=O)[C@H](CCCNC(=N)N)NC(=O)[C@H](Cc1c[nH]cn1)NC(=O)[C@@H](NC(=O)[C@H](CCCNC(=N)N)NC(=O)[C@@H](N)CO)[C@@H](C)O)[C@@H](C)CC)C(=O)N[C@H](C(=O)N1CCC[C@H]1C(=O)N[C@@H](CC(=O)O)C(=O)N[C@H](C(=O)N[C@@H](CC(N)=O)C(=O)N1CCC[C@H]1C(=O)N[C@@H](C)C(=O)N[C@@H](Cc1c[nH]c2ccccc12)C(=O)N[C@@H](Cc1ccc(O)cc1)C(=O)N[C@@H](C)C(=O)N[C@@H](CO)C(=O)N[C@@H](CCCNC(=N)N)C(=O)NCC(=O)N[C@H](C(=O)N[C@@H](CCCNC(=N)N)C(=O)N1CCC[C@H]1C(=O)N[C@H](C(=O)NCC(=O)N[C@@H](CCCNC(=N)N)C(=O)N[C@@H](Cc1ccccc1)C(N)=O)C(C)C)[C@@H](C)CC)[C@@H](C)CC)[C@@H](C)O)C(=O)O [analog 1] (H-SRTHRHSMEIK([γGlu-Palmitoyl])TPDINPAWYASRGIRPVGRF-NH2; N-terminus assumed), the “c-Fos immunoreactivity in Arc, PVN and DMN” value (c-Fos) was “significant increase”, the EC50 (GPR10 [1]) was 0.0463 nM and the Ki (GPR10 [2]; CHO-K1 cells, 0.03 nM radioligand, 60 min 25°C, Cheng-Prusoff, mean ± SEM of at least three experiments, SEM) was 5.01 ± 1.03 nM. The “% binding human PrRP31 (GPR10)” value (GPR10 [2]; Ki relative to human PrRP31 = 100) was 91%, the “125I-human PrRP31 binding to human GPR10, Ki” value (GPR10 [2]; single experiments (replicates listed below each other)) was 9.92 nM and 5.47 nM and 4.23 nM and 3.01 nM and 1.75 nM and 3.77 nM and 6.96 nM and the “Food intake compared to the saline-treated control group” value [3] was “did not reach statistical significance”. For the same compound, the Liver weight [4] was 1.27 ± 0.05 g, the “Perirenal AT” value [4] was 2.72 ± 0.11 % of BW and the “Total AT” value [4] was 14.59 ± 0.32 % of BW. For the same compound, the “Decrease of average BW at the end of the experiment” value [5] was 12%, the Glucose ([6]; blood, 5 mg/kg SC twice a day, 2 weeks) was 7.12 ± 0.36 mmol/L and the HOMA index ([6]; fasting glucose x fasting insulin / 22.5, 2 weeks) was 85.70 ± 0.39. The FFA [6, 7] was 0.54 ± 0.03 mmol/L, the Insulin [6, 7] was 1.57 ± 0.14 ng/mL and the Leptin [6, 7] was 22.67 ± 2.72 ng/mL. For the same compound, the “T Chol (total cholesterol)” value [6, 7] was 4.26 ± 0.22 mmol/L and the Triglycerides [6, 7] was 0.44 ± 0.03 mg/mL.
